How the values were obtained:
[1] = system: wheat; test: Test A postemergence; assay type: in vivo, Triticum aestivum; conditions: 0 to 100 scale, 0 no effect, 100 complete control
Summary of the method: (§1)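 Pre- and postemergence greenhouse screen. Soil: loam + sand. Spray carrier: solvent mixture, non-phytotoxic, with surfactant. Post timing at 1–2 leaves, height 2–10 cm. Readout: visual injury on a 0–100 scale roughly 10 days after application, untreated plants as reference.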

[2] = system: velvetleaf; test: Test C postemergence; assay type: in vivo, Abutilon theophrasti; conditions: for Velvetleaf plant response rating: 31 g ai/ha
Summary of the method: (§2)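 Greenhouse herbicide screen. Pre: seeded loam/sand, sprayed at planting. Post: 1–4 leaf plants (2–18 cm) in peat-based mix. Formulation: solvent mixture + surfactant, non-phytotoxic. Readout: visual % control vs untreated, 13–15 d; dash = not tested.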

[3] = system: barnyardgrass; test: Test A preemergence; assay type: in vivo, Echinochloa crus-galli; conditions: for Barnyardgrass plant response rating (0 to 100 scale, 0 is no effect, 100 is complete control): 125 g ai/ha
Summary of the method: as §1

[4] = system: pigweed; test: Test A postemergence; assay type: in vivo, Amaranthus retroflexus; conditions: 0 to 100 scale, 0 no effect, 100 complete control
Summary of the method: as §1

[5] = system: sedge, umbrella; test: Test B flooded paddy test; assay type: in vivo, Cyperus difformis; conditions: Flood, 250 g ai/ha, 0 to 100 scale where 0 is no effect and 100 is complete control
Summary of the method: (§3)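 Visual ratings on a 0 to 100 scale, where 100 means complete control, compared treated plants with controls after 13 to 15 days in a greenhouse. Treatment went into paddy water 3 cm deep over the soil, applied to plants at the 2-leaf stage.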

[6] = system: corn; test: Test A postemergence; assay type: in vivo, Zea mays; conditions: 0 to 100 scale, 0 no effect, 100 complete control
Summary of the method: as §1

[7] = system: barnyardgrass; test: Test A postemergence; assay type: in vivo, Echinochloa crus-galli; conditions: 0 to 100 scale, 0 no effect, 100 complete control
Summary of the method: as §1

[8] = system: rice; test: Test B flooded paddy test; assay type: in vivo, Oryza sativa; conditions: Flood, 250 g ai/ha, 0 to 100 scale where 0 is no effect and 100 is complete control
Summary of the method: as §3

[9] = system: pigweed; test: Test A preemergence; assay type: in vivo, Amaranthus retroflexus; conditions: for Pigweed plant response rating (0 to 100 scale): 125 g ai/ha
Summary of the method: as §1

[10] = system: galium; test: Test C postemergence; assay type: in vivo, Galium aparine
Summary of the method: as §2

[11] = system: pigweed; test: Test C postemergence; assay type: in vivo, Amaranthus retroflexus; conditions: for Pigweed plant response rating: 31 g ai/ha
Summary of the method: as §2

[12] = system: barnyardgrass; test: Test C postemergence; assay type: in vivo, Echinochloa crus-galli
Summary of the method: as §2

[13] = system: kochia; test: Test C postemergence; assay type: in vivo, Kochia scoparia
Summary of the method: as §2

[14] = system: Heteranthera limosa; test: Test B flooded paddy test; assay type: in vivo; conditions: Flood, 250 g ai/ha, 0 to 100 scale where 0 is no effect and 100 is complete control
Summary of the method: as §3

[15] = system: giant foxtail; test: Test A postemergence; assay type: in vivo, Setaria faberii; conditions: 0 to 100 scale, 0 no effect, 100 complete control
Summary of the method: as §1

[16] = postemergence, visual rating, scale 0 to 100 (0 no effect, 100 complete control), 13 to 15 days
[17] = 16 g ai/ha, postemergence, 0 is no effect, 100 is complete control
[18] = 125 g ai/ha, postemergence, visual rating, scale 0 to 100 (0 no effect, 100 complete control)
[19] = Postemergence, 62 g ai/ha, scale 0 to 100 (0 no effect, 100 complete control), 13 to 15 days
[20] = 31 g ai/ha, 0 to 100 scale where 0 is no effect and 100 is complete control, visual, approximately 10 days
[21] = 31 g ai/ha, postemergence, visual rating, scale 0 to 100 (0 no effect, 100 complete control), 13 to 15 days

SMILES: N#Cc1cccc(Oc2ncc(Cl)cn2)c1-n1cc(C(F)F)cn1 [Compound 253, 3-(5-chloropyrimidin-2-yl)oxy-2-[4-(difluoromethyl)-1H-pyrazol-1-yl]benzonitrile]
- plant injury at 31 g/ha ([1]; Triticum aestivum, post-emergence, 240 h, 31 g ai/ha, read-out: Plant response rating, Wheat): 20%
- plant injury at 125 g/ha ([1]; Triticum aestivum, post-emergence, 240 h, 125 g ai/ha, read-out: Plant response rating, Wheat): 30%
- Velvetleaf plant response rating [2, 16]: 70
- pest or weed control at 16 g/ha ([2]; Abutilon theophrasti, post-emergence, 16 g ai/ha, postemergence, 0 is no effect, 100 is complete control, read-out: Plant response rating (0 to 100), Velvetleaf): 30%
- pest or weed control at 125 g/ha ([2]; Abutilon theophrasti, post-emergence, 125 g ai/ha, postemergence, visual rating, scale 0 to 100 (0 no effect, 100 complete control), read-out: Plant response rating, Velvetleaf): 85%
- pest or weed control at 62 g/ha ([2]; Abutilon theophrasti, post-emergence, Postemergence, 62 g ai/ha, scale 0 to 100 (0 no effect, 100 complete control), 13 to 15 days, read-out: Plant response rating, Velvetleaf): 70%
- Barnyardgrass plant response rating (0 to 100 scale, 0 is no effect, 100 is complete control) [3]: 100
- pest or weed control at 31 g/ha ([3]; Echinochloa crus-galli, pre-emergence, 240 h, 31 g ai/ha, 0 to 100 scale where 0 is no effect and 100 is complete control, visual, approximately 10 days, read-out: Plant response rating, Barnyardgrass): 50%
- pest or weed control at 31 g/ha ([4]; Amaranthus retroflexus, post-emergence, 31 g ai/ha, read-out: Plant response rating, Pigweed): 90%
- pest or weed control at 125 g/ha ([4]; Amaranthus retroflexus, post-emergence, 125 g ai/ha, read-out: Plant response rating, Pigweed): 100%
- pest or weed control at 250 g/ha ([5]; Cyperus difformis, read-out: Plant response rating, Sedge, Umbrella): 85%
- Corn plant response rating (crop injury, 0 = no effect, 100 = complete kill) at 31 g/ha ([6]; Zea mays, post-emergence, 240 h, 31 g ai/ha): 20%
- Corn plant response rating (crop injury, 0 = no effect, 100 = complete kill) at 125 g/ha ([6]; Zea mays, post-emergence, 240 h, 125 g ai/ha): 60%
- pest or weed control at 31 g/ha ([7]; Echinochloa crus-galli, post-emergence, 240 h, 31 g ai/ha, read-out: Plant response rating, Barnyardgrass): 20%
- pest or weed control at 125 g/ha ([7]; Echinochloa crus-galli, post-emergence, 240 h, 125 g ai/ha, read-out: Plant response rating, Barnyardgrass): 100%
- plant injury at 250 g/ha ([8]; Oryza sativa, read-out: Plant response rating, Rice): 25%
- Pigweed plant response rating (0 to 100 scale) [9]: 100
- pest or weed control at 31 g/ha ([9]; Amaranthus retroflexus, pre-emergence, 240 h, 31 g ai/ha, 0 to 100 scale where 0 is no effect and 100 is complete control, visual, approximately 10 days, read-out: Plant response rating, Pigweed): 100%
- pest or weed control at 16 g/ha ([10]; Galium, post-emergence, 16 g ai/ha, postemergence, 0 is no effect, 100 is complete control, read-out: Plant response rating (0 to 100), Galium): 45%
- pest or weed control at 31 g/ha ([10]; Galium, post-emergence, 31 g ai/ha, postemergence, visual rating, scale 0 to 100 (0 no effect, 100 complete control), 13 to 15 days, read-out: Galium plant response rating): 80%
- pest or weed control at 125 g/ha ([10]; Galium, post-emergence, 125 g ai/ha, postemergence, visual rating, scale 0 to 100 (0 no effect, 100 complete control), read-out: Plant response rating, Galium): 100%
- pest or weed control at 62 g/ha ([10]; Galium, post-emergence, Postemergence, 62 g ai/ha, scale 0 to 100 (0 no effect, 100 complete control), 13 to 15 days, read-out: Plant response rating, Galium): 80%
- Pigweed plant response rating [11, 16]: 85
- pest or weed control at 16 g/ha ([11]; Amaranthus retroflexus, post-emergence, 16 g ai/ha, postemergence, 0 is no effect, 100 is complete control, read-out: Plant response rating (0 to 100), Pigweed): 85%
- pest or weed control at 125 g/ha ([11]; Amaranthus retroflexus, post-emergence, 125 g ai/ha, postemergence, visual rating, scale 0 to 100 (0 no effect, 100 complete control), read-out: Plant response rating, Pigweed): 95%
- pest or weed control at 62 g/ha ([11]; Amaranthus retroflexus, post-emergence, Postemergence, 62 g ai/ha, scale 0 to 100 (0 no effect, 100 complete control), 13 to 15 days, read-out: Plant response rating, Pigweed): 98%
- pest or weed control at 16 g/ha ([12]; Echinochloa crus-galli, post-emergence, 16 g ai/ha, postemergence, 0 is no effect, 100 is complete control, read-out: Plant response rating (0 to 100), Barnyardgrass): 5%
- pest or weed control at 31 g/ha ([12]; Echinochloa crus-galli, post-emergence, 31 g ai/ha, postemergence, visual rating, scale 0 to 100 (0 no effect, 100 complete control), 13 to 15 days, read-out: Barnyardgrass plant response rating): 5%
- pest or weed control at 125 g/ha ([12]; Echinochloa crus-galli, post-emergence, 125 g ai/ha, postemergence, visual rating, scale 0 to 100 (0 no effect, 100 complete control), read-out: Plant response rating, Barnyardgrass): 20%
- pest or weed control at 62 g/ha ([12]; Echinochloa crus-galli, post-emergence, Postemergence, 62 g ai/ha, scale 0 to 100 (0 no effect, 100 complete control), read-out: Plant response rating, Barnyardgrass): 10%
- pest or weed control at 16 g/ha ([13]; Bassia scoparia, post-emergence, 16 g ai/ha, postemergence, 0 is no effect, 100 is complete control, read-out: Plant response rating (0 to 100), Kochia): 80%
- pest or weed control at 31 g/ha ([13]; Bassia scoparia, post-emergence, 31 g ai/ha, postemergence, visual rating, scale 0 to 100 (0 no effect, 100 complete control), 13 to 15 days, read-out: Kochia plant response rating): 98%
- pest or weed control at 125 g/ha ([13]; Bassia scoparia, post-emergence, 125 g ai/ha, postemergence, visual rating, scale 0 to 100 (0 no effect, 100 complete control), read-out: Plant response rating, Kochia): 100%
- pest or weed control at 62 g/ha ([13]; Bassia scoparia, post-emergence, Postemergence, 62 g ai/ha, scale 0 to 100 (0 no effect, 100 complete control), 13 to 15 days, read-out: Plant response rating, Kochia): 100%
- pest or weed control at 250 g/ha ([14]; Heteranthera limosa, read-out: Plant response rating, Ducksalad): 75%
- pest or weed control at 31 g/ha ([15]; Setaria faberi, post-emergence, 240 h, 31 g ai/ha, read-out: Plant response rating, Foxtail, Giant): 20%
- pest or weed control at 125 g/ha ([15]; Setaria faberi, post-emergence, 240 h, 125 g ai/ha, read-out: Plant response rating, Foxtail, Giant): 100%

SMILES: FC(F)Oc1cnn(-c2c(Cl)cccc2Oc2ncc(Cl)cn2)c1 [Compound 258]
- Plant response rating, Wheat ([1]; 31 g ai/ha): 0
- Plant response rating, Wheat ([1]; 125 g ai/ha): 50
- Plant response rating (0 to 100), Velvetleaf [2, 17]: 55
- Velvetleaf plant response rating [2, 16]: 65
- Plant response rating, Velvetleaf [2, 18]: 80
- Plant response rating, Velvetleaf [2, 19]: 75
- Plant response rating, Barnyardgrass [3, 20]: 50
- Barnyardgrass plant response rating (0 to 100 scale, 0 is no effect, 100 is complete control) [3]: 90
- Plant response rating, Pigweed ([4]; 31 g ai/ha): 80
- Plant response rating, Pigweed ([4]; 125 g ai/ha): 100
- Plant response rating, Sedge, Umbrella [5]: 95
- Plant response rating, Corn ([6]; 31 g ai/ha): 10
- Plant response rating, Corn ([6]; 125 g ai/ha): 40
- Plant response rating, Barnyardgrass ([7]; 31 g ai/ha): 10
- Plant response rating, Barnyardgrass ([7]; 125 g ai/ha): 90
- Plant response rating, Rice [8]: 30
- Plant response rating, Pigweed [9, 20]: 100
- Pigweed plant response rating (0 to 100 scale) [9]: 100
- Plant response rating (0 to 100), Galium [10, 17]: 85
- Galium plant response rating [10, 21]: 90
- Plant response rating, Galium [10, 18]: 100
- Plant response rating, Galium [10, 19]: 95
- Plant response rating (0 to 100), Pigweed [11, 17]: 75
- Pigweed plant response rating [11, 16]: 85
- Plant response rating, Pigweed [11, 18]: 90
- Plant response rating, Pigweed [11, 19]: 85
- Plant response rating (0 to 100), Barnyardgrass [12, 17]: 5
- Barnyardgrass plant response rating [12, 21]: 10
- Plant response rating, Barnyardgrass [12, 18]: 10
- Plant response rating, Barnyardgrass [12, 19]: 10
- Plant response rating (0 to 100), Kochia [13, 17]: 90
- Kochia plant response rating [13, 21]: 95
- Plant response rating, Kochia [13, 18]: 100
- Plant response rating, Kochia [13, 19]: 100
- Plant response rating, Ducksalad [14]: 100
- Plant response rating, Foxtail, Giant ([15]; 31 g ai/ha): 20
- Plant response rating, Foxtail, Giant ([15]; 125 g ai/ha): 70

Source: patent publication US9695155B2, “Herbicidal substituted pyrimidinyloxy benzene compounds” (E. I. DU PONT DE NEMOURS AND COMPANY, priority 2013, dated 2017)
